Results from ChEMBL document CHEMBL5465560, “Selectivity Literature for EUbOPEN Chemogenomic Library” (2024).

Experiments:
[1] = biological target: T1, Cytoplasmic tyrosine-protein kinase BMX (Homo sapiens) (UniProt P51813); assay: Selectivity interaction (Millipore kinase profiler) EUB0000124b BMX; settings: at 10 µM
T1 sequence (whole entry): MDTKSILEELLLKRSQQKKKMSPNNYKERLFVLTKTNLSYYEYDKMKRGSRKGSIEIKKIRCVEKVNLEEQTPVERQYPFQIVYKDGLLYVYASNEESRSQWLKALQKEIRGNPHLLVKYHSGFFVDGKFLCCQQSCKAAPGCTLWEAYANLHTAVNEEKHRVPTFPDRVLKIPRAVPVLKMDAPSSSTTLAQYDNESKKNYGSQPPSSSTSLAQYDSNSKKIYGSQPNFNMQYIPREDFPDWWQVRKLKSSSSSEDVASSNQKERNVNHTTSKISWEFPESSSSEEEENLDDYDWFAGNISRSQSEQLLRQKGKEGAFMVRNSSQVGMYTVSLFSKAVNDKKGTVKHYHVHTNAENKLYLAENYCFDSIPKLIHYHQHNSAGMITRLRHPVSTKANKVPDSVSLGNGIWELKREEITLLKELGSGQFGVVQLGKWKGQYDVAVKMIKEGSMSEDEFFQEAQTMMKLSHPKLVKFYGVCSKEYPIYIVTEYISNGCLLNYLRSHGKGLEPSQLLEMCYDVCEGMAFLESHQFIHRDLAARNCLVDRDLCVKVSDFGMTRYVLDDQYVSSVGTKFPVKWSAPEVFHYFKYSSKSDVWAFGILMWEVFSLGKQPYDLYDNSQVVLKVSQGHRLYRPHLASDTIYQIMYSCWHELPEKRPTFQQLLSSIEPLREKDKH

PXR (NR1I2) = PXR (NR1I2) (Homo sapiens, UniProt O75469); assay: Selectivity interaction (Panel of kinases, GPCRs, ion channels and transporters (enzymatic assay)) EUB0000266bCl NR1I2
Chain of PXR (NR1I2) (O75469 whole entry): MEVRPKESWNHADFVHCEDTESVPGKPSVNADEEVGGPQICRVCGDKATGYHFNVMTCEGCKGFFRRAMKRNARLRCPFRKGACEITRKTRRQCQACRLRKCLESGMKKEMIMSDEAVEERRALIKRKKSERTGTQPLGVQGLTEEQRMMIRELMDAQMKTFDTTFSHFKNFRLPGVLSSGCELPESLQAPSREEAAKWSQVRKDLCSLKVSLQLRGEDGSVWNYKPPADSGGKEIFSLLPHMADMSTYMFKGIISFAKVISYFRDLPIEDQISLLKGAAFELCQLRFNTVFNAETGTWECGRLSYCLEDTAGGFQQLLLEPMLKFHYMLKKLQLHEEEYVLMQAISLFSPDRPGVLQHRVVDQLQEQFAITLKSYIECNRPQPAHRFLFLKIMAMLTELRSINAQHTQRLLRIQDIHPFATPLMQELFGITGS

[2] = biological target: T2, Mitogen-activated protein kinase kinase kinase 3 (Homo sapiens) (UniProt Q99759); assay: Selectivity interaction (ActivX KiNativ screen (kinase selectivity in THP-1 cell lysates)) EUB0000639a MAP3K3; type: subcellular; settings: lysate
T2 sequence (whole entry): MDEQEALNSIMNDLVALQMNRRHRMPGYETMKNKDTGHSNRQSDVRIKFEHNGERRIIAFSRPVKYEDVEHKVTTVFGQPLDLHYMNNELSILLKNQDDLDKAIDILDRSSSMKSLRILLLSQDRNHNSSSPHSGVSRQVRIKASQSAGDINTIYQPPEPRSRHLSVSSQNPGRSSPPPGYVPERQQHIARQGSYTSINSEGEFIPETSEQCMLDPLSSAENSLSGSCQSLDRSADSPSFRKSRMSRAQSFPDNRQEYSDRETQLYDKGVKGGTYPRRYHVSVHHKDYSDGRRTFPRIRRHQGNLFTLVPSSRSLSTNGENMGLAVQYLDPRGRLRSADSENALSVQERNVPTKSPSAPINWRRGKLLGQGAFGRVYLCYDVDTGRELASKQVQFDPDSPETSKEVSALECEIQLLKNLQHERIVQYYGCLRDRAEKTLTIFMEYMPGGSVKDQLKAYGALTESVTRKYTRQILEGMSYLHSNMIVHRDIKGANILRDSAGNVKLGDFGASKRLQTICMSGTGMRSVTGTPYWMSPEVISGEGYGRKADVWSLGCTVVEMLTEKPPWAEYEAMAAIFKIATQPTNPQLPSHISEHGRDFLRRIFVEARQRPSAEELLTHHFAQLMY

[3] = biological target: Serine/threonine-protein kinase N1 (Homo sapiens, UniProt Q16512); assay: Selectivity interaction (ActivX KiNativ screen (kinase selectivity in THP-1 cell lysates)) EUB0000639a PKN1; type: subcellular; settings: lysate, at 0.2 µM
[4] = biological target: Bromodomain-containing protein 2 (Homo sapiens) (UniProt P25440); assay: Selectivity interaction (Bromodomain panel (DSF asssay)) EUB0000270b BRD2
Chain of Bromodomain-containing protein 2 (Homo sapiens) (P25440 whole entry, looked up): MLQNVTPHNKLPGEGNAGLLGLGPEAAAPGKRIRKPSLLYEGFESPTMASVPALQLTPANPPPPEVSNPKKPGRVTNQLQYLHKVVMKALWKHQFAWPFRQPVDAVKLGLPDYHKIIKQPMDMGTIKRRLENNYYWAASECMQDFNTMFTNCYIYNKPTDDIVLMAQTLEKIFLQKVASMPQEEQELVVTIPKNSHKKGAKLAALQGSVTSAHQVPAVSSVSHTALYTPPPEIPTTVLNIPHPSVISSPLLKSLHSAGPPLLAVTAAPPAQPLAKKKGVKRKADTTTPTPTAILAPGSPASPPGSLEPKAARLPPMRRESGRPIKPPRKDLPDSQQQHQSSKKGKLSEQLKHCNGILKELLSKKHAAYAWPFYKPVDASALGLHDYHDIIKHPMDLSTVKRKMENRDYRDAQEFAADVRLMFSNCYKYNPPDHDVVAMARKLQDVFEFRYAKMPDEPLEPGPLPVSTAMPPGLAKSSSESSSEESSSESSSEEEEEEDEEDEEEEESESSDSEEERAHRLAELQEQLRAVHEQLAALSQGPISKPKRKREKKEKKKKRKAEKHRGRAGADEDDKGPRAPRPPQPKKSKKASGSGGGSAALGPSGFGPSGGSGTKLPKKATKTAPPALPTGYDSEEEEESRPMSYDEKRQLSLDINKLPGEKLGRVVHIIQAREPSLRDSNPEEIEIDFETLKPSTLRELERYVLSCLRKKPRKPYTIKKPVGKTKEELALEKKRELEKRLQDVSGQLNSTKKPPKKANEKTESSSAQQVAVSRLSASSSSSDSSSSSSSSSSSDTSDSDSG

[5] = biological target: Vascular endothelial growth factor receptor 3 (Homo sapiens, UniProt P35916); assay: Selectivity interaction (KinomeScan (DiscoverX)) EUB0000695a FLT4; settings: at 100 nM
Chain of Vascular endothelial growth factor receptor 3 (P35916 whole entry): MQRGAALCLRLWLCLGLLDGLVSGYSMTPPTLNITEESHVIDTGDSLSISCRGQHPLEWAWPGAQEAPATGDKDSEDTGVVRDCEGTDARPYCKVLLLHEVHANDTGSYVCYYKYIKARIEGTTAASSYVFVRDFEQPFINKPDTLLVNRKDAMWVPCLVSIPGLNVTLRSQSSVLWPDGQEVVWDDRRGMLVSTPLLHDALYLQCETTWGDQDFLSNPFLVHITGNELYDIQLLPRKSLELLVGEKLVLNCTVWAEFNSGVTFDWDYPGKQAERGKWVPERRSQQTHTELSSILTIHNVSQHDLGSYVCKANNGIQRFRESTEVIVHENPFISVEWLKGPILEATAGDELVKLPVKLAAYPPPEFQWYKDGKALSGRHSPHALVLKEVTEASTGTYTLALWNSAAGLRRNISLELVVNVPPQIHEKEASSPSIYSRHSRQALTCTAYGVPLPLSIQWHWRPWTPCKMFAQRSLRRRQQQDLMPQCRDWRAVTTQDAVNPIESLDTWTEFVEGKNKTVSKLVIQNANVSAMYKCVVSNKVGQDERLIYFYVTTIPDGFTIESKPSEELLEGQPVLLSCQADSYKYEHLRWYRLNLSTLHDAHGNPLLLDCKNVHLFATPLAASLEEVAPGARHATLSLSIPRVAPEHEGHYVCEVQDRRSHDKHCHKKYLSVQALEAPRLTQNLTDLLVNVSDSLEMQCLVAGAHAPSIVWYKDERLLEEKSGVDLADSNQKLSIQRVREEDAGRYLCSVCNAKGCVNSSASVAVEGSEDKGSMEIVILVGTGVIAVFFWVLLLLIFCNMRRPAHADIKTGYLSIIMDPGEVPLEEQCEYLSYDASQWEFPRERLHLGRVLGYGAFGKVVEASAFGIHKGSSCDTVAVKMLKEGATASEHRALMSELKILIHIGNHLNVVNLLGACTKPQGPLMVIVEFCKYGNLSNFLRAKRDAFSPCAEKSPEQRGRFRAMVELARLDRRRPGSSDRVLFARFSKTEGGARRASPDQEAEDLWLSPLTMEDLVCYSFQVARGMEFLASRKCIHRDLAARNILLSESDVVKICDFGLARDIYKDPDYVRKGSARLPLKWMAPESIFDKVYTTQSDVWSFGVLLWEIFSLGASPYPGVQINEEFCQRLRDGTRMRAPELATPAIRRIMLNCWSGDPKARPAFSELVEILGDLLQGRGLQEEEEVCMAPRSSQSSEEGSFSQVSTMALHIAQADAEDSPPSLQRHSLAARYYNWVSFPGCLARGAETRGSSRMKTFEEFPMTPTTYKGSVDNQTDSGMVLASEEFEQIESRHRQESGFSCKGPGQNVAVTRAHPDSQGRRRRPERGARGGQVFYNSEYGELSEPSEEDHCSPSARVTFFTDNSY

[6] = biological target: Calcium/calmodulin-dependent protein kinase type 1 (Homo sapiens) (UniProt Q14012); assay: Selectivity interaction (KinomeScan (DiscoverX)) EUB0001079a CAMK1; settings: at 1 µM
[7] = biological target: Tyrosine-protein kinase Lyn (Homo sapiens, UniProt P07948); assay: Selectivity interaction (ProQinase) EUB0000171b LYN
Chain of Tyrosine-protein kinase Lyn (P07948 2-512 limits assumed): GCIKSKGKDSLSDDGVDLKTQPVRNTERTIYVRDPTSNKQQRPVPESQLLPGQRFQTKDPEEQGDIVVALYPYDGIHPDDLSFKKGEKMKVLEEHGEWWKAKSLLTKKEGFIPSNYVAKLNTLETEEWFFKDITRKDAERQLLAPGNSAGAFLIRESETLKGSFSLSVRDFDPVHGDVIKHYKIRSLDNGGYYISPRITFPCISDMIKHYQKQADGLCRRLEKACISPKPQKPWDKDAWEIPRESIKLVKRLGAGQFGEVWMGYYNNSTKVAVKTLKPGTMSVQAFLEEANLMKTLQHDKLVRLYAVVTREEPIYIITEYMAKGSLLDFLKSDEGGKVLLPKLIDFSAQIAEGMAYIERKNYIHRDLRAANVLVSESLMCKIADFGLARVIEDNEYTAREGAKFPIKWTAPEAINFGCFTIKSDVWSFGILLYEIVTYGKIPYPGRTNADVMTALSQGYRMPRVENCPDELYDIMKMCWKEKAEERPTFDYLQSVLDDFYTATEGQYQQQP

[8] = biological target: G protein-coupled receptor kinase 6 (Homo sapiens) (UniProt P43250); assay: Selectivity interaction (ActivX KiNativ screen (ex vivo kinase selectivity in human PBMCs)) EUB0001619a GRK6; type: cell-based; settings: PBMC, at 1 µM
Chain of G protein-coupled receptor kinase 6 (Homo sapiens) (P43250 whole entry, looked up): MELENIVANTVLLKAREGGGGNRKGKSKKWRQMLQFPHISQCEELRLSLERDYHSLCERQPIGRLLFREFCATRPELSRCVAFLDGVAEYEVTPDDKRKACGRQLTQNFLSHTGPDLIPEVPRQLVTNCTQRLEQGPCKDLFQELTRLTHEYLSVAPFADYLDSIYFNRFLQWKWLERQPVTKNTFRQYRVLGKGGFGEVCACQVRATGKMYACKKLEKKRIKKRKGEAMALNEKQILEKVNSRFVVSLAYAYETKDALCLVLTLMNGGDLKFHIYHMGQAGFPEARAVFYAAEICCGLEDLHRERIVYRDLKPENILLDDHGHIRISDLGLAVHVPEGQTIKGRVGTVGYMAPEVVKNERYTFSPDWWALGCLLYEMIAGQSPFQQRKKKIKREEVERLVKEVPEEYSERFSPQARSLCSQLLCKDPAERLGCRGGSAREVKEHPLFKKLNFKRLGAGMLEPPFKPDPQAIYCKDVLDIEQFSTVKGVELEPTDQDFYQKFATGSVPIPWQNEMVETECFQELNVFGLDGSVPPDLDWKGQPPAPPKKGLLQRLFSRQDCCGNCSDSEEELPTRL

[9] = biological target: Tyrosine-protein kinase Fes/Fps (Homo sapiens) (UniProt P07332); assay: Selectivity interaction (ActivX KiNativ screen (ex vivo kinase selectivity in human PBMCs)) EUB0001619a FES; type: cell-based; settings: PBMC, at 1 µM
Chain of Tyrosine-protein kinase Fes/Fps (Homo sapiens) (P07332 whole entry, canonical isoform): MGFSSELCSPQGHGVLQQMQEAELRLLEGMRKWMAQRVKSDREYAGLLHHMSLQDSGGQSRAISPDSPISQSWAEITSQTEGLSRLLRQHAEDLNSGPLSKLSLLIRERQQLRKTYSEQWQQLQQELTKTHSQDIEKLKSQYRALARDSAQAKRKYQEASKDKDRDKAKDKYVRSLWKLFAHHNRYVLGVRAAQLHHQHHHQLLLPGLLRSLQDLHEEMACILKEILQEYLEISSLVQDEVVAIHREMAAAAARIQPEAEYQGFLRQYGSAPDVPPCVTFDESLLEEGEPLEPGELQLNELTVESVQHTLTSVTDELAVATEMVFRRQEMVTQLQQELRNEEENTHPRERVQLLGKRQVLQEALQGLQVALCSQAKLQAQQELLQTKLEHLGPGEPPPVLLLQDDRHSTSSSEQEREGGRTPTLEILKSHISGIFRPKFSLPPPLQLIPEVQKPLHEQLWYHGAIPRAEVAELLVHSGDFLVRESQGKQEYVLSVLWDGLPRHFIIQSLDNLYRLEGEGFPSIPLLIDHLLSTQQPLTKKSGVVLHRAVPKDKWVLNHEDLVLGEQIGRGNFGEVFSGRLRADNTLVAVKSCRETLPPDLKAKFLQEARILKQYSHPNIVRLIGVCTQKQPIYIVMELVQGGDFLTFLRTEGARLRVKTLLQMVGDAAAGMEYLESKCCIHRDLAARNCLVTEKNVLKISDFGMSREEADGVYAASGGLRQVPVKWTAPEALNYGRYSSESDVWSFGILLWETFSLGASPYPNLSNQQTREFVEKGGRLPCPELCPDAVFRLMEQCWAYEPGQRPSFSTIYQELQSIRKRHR

[10] = biological target: Casein kinase I isoform alpha (Homo sapiens, UniProt P48729); assay: Selectivity interaction (KinomeScan (DiscoverX)) EUB0000607a CSNK1A1; settings: at 10 µM
Chain of Casein kinase I isoform alpha (P48729 2-337 limits assumed): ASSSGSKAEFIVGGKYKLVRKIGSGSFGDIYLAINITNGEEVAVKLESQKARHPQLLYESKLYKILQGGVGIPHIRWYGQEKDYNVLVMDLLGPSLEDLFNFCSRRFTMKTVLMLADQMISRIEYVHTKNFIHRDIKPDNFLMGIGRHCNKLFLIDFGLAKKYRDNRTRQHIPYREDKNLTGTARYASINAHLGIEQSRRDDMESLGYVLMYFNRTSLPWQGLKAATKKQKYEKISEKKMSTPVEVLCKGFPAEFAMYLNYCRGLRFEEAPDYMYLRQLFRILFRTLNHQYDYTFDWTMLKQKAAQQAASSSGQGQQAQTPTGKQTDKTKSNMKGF

[11] = biological target: T3, Lymphokine-activated killer T-cell-originated protein kinase (Homo sapiens) (UniProt Q96KB5); assay: Selectivity interaction (Kinase panel (DSF assay)) EUB0001558a PBK
T3 sequence (whole entry): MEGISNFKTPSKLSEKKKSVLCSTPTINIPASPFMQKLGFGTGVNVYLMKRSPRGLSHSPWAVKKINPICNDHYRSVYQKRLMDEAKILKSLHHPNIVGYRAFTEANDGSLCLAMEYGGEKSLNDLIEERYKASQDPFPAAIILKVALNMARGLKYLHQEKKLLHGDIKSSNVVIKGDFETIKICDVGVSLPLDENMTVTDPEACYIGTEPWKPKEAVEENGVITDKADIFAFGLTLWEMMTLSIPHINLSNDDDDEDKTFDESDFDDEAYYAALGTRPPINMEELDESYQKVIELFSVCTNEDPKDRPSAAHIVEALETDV

## CC(=O)Nc1cccc(-n2c(=O)n(C3CC3)c(=O)c3c(Nc4ccc(I)cc4F)n(C)c(=O)c(C)c32)c1
[1]
  % of control: 93%

## CCn1c(-c2nc3cc(C(=O)N4CCCC(N)C4)ccc3n2C)cc2ccccc21 (configuration not stated)
PXR (NR1I2)
  XC50: > 50.1 µM

## CC[C@@H]1[C@H](F)C(=O)N[C@@H]1COc1nccc2cc(C(N)=O)c(OC)cc12 [ZIMLOVISERTIB]
[2]; at 0.01 µM
  % of inhibition: 8.7%
[2]; at 0.04 µM
  % of inhibition: 1.8%
[2]; at 0.2 µM
  % of inhibition: -1.4%
[2]; at 1 µM
  % of inhibition: -7.6%
[2]; at 5 µM
  % of inhibition: 12.6%
[3]
  % of inhibition: 5.5%

## Cc1cc(CN)cc(C)c1-c1ncn(C)c1-c1cncn1C
[4]
  dTM: -1.04 K

## Cc1cc(F)c(C(=O)Nc2cccc(-c3nncn3C(C)C)n2)cc1-n1cnc(C2CC2)c1
[5]
  % of control: 100%

## Nc1cnc(N2CCc3cc(S(=O)(=O)Nc4c(F)cc(Cl)cc4F)cc(N4CCCC4=O)c32)nc1 [TP-020n]
[6]
  % of control: 88%

## C=CC(=O)Nc1cccc(C(=O)Nc2ccc(Nc3cc(-c4[nH]c(SC)nc4C)ccn3)cc2)c1
[7]; at 1 µM
  % of control: 99%
[7]; at 5 µM
  % of control: 94%

## N#Cc1cccc(-c2c[nH]c3ncnc(N4CCOCC4)c23)c1
[8]
  % of inhibition: 11%
[9]
  % of inhibition: 7%

## CNC(=O)Nc1ccc(-c2nc(N3CC4CCC(C3)O4)c3cnn(C4CCC5(CC4)OCCO5)c3n2)cc1
[10]
  % of control: 100%

## CC(C)(O)[C@H](F)CN1Cc2cc(NC(=O)c3cnn4cccnc34)c(N3CCOCC3)cc2C1=O
[11]
  dTM: -1.2 K
